Experiments:
human CB2 [1] = target: T1, human CB2 (Homo sapiens, UniProt P34972); assay: competitive radioligand binding assay, displacement of [3H]CP55,940, HEK cell membranes; design: expressed in transfected cells; host or cells: HEK293 cells, P2 membrane preparation; details: [3H]CP55,940 1 nM
human CB1 [2] = target: T2, human CB1 (Homo sapiens, UniProt P21554); assay: as above; design: expressed in transfected cells; host or cells: HEK293 cells, P2 membrane preparation; details: [3H]CP55,940 1 nM
human CB2 [3] = target: T1, human CB2; assay: fluorescence-based membrane potential assay (GIRK activation) in AtT20 cells; type: cell-based; design: expressed in transfected cells; host or cells: mouse AtT20 FlpIn cells; details: for hCB2 Emax ±SEM: AtT20-hCB2, normalised to 1 μM CP55,940; for EC50: hCB2 EC50, AtT20-hCB2, value in brackets after pEC50
human CB1 [4] = target: T2, human CB1; assay: as above; type: cell-based; design: expressed in transfected cells; host or cells: mouse AtT20 FlpIn cells; details: for hCB1 Emax ±SEM: normalised to 1 μM CP55,940; for hCB1 maximal response at 10 μM (footnote d): highest concentration tested, curve not fitted
[5] = hCB2 Ki, value in brackets after pKi
[6] = hCB1 Ki, value in brackets after pKi
[7] = hCB1 EC50, AtT20-hCB1, value in brackets after pEC50
[8] = hCB1 pEC50 ±SEM, AtT20-hCB1, DNC = did not converge, ND = < 50% change in fluorescence at 10 μM
[9] = hCB2 pKi ±SEM, mean ± SEM of 3 to 6 independent experiments
[10] = AtT20-hCB1, DNC = did not converge, ND = < 50% change in fluorescence at 10 μM
[11] = hCB1 pKi ±SEM, mean ± SEM of 3 to 6 independent experiments

T2 sequence (P21554 whole entry): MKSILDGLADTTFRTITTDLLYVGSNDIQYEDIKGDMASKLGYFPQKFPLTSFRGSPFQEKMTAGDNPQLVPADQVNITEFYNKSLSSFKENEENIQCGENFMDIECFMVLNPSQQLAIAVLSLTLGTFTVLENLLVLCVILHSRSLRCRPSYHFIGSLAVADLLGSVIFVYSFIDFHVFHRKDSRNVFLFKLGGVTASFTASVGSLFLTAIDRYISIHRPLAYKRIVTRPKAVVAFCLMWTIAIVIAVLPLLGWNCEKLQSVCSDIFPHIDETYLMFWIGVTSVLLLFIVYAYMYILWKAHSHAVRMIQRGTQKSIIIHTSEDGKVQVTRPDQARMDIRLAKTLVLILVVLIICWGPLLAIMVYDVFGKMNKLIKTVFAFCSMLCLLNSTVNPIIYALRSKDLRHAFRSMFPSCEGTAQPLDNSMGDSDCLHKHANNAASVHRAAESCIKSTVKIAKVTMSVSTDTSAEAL
T1 sequence (P34972 whole entry): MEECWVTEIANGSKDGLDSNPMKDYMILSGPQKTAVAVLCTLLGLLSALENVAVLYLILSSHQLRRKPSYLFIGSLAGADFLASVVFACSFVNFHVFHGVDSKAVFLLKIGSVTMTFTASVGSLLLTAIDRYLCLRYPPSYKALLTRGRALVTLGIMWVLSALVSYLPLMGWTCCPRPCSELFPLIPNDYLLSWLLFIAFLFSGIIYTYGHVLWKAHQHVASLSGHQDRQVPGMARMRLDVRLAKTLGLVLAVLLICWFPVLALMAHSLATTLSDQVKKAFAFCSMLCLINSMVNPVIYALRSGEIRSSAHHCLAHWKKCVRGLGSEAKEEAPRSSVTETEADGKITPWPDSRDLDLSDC

SMILES | melting point [°C] | Ki (human CB2 [1]; [5]) [nM] | Ki (human CB1 [2]; [6]) [nM] | hCB2 Emax ±SEM (human CB2 [3]) | EC50 (human CB2 [3]) [nM] | hCB1 Emax ±SEM (human CB1 [4]; AtT20-hCB1) | EC50 (human CB1 [4]; [7]) [nM] | EC50 (human CB1 [4]; [8]) [nM] | Ki (human CB2 [1]; [9]) [nM] | hCB1 maximal response at 10 μM (footnote d) (human CB1 [4]; AtT20-hCB1) | hCB1 maximal response at 10 μM (footnote d) (human CB1 [4]; AtT20-hCB1, listed as APP-4CN-BUTICA (10)) | hCB1 pEC50 ±SEM (human CB1 [4]; [10]) | Ki (human CB1 [2]; [11]) [nM] | hCB1 maximal response at 10 μM (footnote d) (human CB1 [4]; AtT20-hCB1, listed as APP-4CN-BUTINACA (13))
CC(C)[C@H](NC(=O)c1cn(CCCCC#N)c2ccccc12)C(N)=O [Compound 5, (S)-N-(1-amino-3-methyl-1-oxobutan-2-yl)-1-(4-cyanobutyl)-1H-indole-3-carboxamide] | 177 to 180 | 603 | 550 | 100 ± 2 % CP55,940 | 75.9 | 111 ± 5 % CP55,940 | 400 | – | – | – | – | – | – | –
COC(=O)[C@@H](NC(=O)c1nn(CCCCC#N)c2ccccc12)C(C)C [Compound 6, methyl (1-(4-cyanobutyl)-1H-indazole-3-carbonyl)-L-valinate] | – | 6.46 | 17.4 | 101 ± 4 % CP55,940 | 2.14 | 117 ± 6 % CP55,940 | 3.61 | – | – | – | – | – | – | –
COC(=O)[C@@H](NC(=O)c1cn(CCCCF)c2ccccc12)C(C)(C)C [Compound 7, methyl (S)-2-(1-(4-fluorobutyl)-1H-indole-3-carboxamido)-3,3-dimethylbutanoate] | – | – | 13.2 | 110 ± 3 % CP55,940 | 2.87 | 114 ± 3 % CP55,940 | 3.43 | 3.39 | – | – | – | – | – | –
COC(=O)[C@@H](NC(=O)c1nn(CCCCF)c2ccccc12)C(C)(C)C [Compound 8, methyl (S)-2-(1-(4-fluorobutyl)-1H-indazole-3-carboxamido)-3,3-dimethylbutanoate] | – | 0.1 | 6.2 | 103 ± 5 % CP55,940 | 3.28 | 106 ± 3 % CP55,940 | – | 0.407 | 0.12 | – | – | – | – | –
CC(C)(C)[C@H](NC(=O)c1cn(CCCCC#N)c2ccccc12)C(N)=O [Compound 9, (S)-N-(1-amino-3,3-dimethyl-1-oxobutan-2-yl)-1-(4-cyanobutyl)-1H-indole-3-carboxamide] | 101 to 103 | 5.5 | 6.8 | 106 ± 6 % CP55,940 | 10.4 | 115 ± 5 % CP55,940 | 10.2 | – | – | – | – | – | – | –
N#CCCCCn1cc(C(=O)N[C@@H](Cc2ccccc2)C(N)=O)c2ccccc21 [Compound 10, (S)-N-(1-amino-1-oxo-3-phenylpropan-2-yl)-1-(4-cyanobutyl)-1H-indole-3-carboxamide] | 84 to 85 | 776 | 3310 | 95 ± 3 % CP55,940 | 98.4 | – | – | – | – | submaximal agonist activity | 85 ± 3^d % CP55,940 | DNC^b | – | –
CC(C)[C@H](NC(=O)c1nn(CCCCC#N)c2ccccc12)C(N)=O [Compound 11, (S)-N-(1-amino-3-methyl-1-oxobutan-2-yl)-1-(4-cyanobutyl)-1H-indazole-3-carboxamide] | – | 24 | 43.7 | 103 ± 1 % CP55,940 | 4.97 | 111 ± 5 % CP55,940 | 26.3 | – | – | – | – | – | – | –
CC(C)(C)[C@H](NC(=O)c1nn(CCCCC#N)c2ccccc12)C(N)=O [Compound 12, (S)-N-(1-amino-3,3-dimethyl-1-oxobutan-2-yl)-1-(4-cyanobutyl)-1H-indazole-3-carboxamide] | 82 to 86 | 2.57 | 8.13 | 96 ± 2 % CP55,940 | 1.76 | 109 ± 2 % CP55,940 | – | 0.331 | – | – | – | – | – | –
N#CCCCCn1nc(C(=O)N[C@@H](Cc2ccccc2)C(N)=O)c2ccccc21 [Compound 13, (S)-N-(1-amino-1-oxo-3-phenylpropan-2-yl)-1-(4-cyanobutyl)-1H-indazole-3-carboxamide] | – | 170 | 1100 | 107 ± 11 % CP55,940 | 74.1 | – | – | – | 166 | 104 % CP55,940 | – | DNC^b | 1070 | 104 ± 3^d % CP55,940
COC(=O)[C@@H](NC(=O)c1cn(CCCCC#N)c2ccccc12)C(C)C [Compound 17, methyl (1-(4-cyanobutyl)-1H-indole-3-carbonyl)-L-valinate] | – | 85.1 | 159 | 95 ± 3 % CP55,940 | 13.5 | 105 ± 3 % CP55,940 | 50.8 | – | – | – | – | – | – | –
COC(=O)[C@@H](NC(=O)c1nn(CCCCC#N)c2ccccc12)C(C)(C)C [Compound 20, methyl (S)-2-(1-(4-cyanobutyl)-1H-indazole-3-carboxamido)-3,3-dimethylbutanoate] | – | 0.295 | 1.29 | 101 ± 2 % CP55,940 | 3.56 | 113 ± 2 % CP55,940 | 0.72 | – | – | – | – | – | – | –
COC(=O)[C@@H](NC(=O)c1cn(CCCCC#N)c2ncccc12)C(C)C [Compound 22, methyl (1-(4-cyanobutyl)-1H-pyrrolo[2,3-b]pyridine-3-carbonyl)-L-valinate] | – | 316 | 1510 | 95 ± 4 % CP55,940 | 68.3 | 114 ± 7 % CP55,940 | 430 | – | – | – | – | – | – | –
COC(=O)[C@@H](NC(=O)c1cn(CCCCC#N)c2ncccc12)C(C)(C)C [Compound 23, methyl (S)-2-(1-(4-cyanobutyl)-1H-pyrrolo[2,3-b]pyridine-3-carboxamido)-3,3-dimethylbutanoate] | – | 2.4 | 9.2 | 106± 5 % CP55,940 | 12.6 | 114 ± 5 % CP55,940 | 10.3 | – | 2.45 | – | – | – | 9.33 | –
CC(C)[C@H](NC(=O)c1cn(CCCCF)c2ncccc12)C(N)=O [Compound 31, (S)-N-(1-amino-3-methyl-1-oxobutan-2-yl)-1-(4-fluorobutyl)-1H-pyrrolo[2,3-b]pyridine-3-carboxamide] | – | 1400 | – | 98 ± 4 % CP55,940 | 137 | – | – | – | 1380 | 82 ± 4^d % CP55,940 | – | DNC^b | > 10000 | –
COC(=O)[C@@H](NC(=O)c1nn(CCCCF)c2ccccc12)C(C)C [Compound 36, methyl (1-(4-fluorobutyl)-1H-indazole-3-carbonyl)-L-valinate] | – | 1.6 | – | 100 ± 2 % CP55,940 | 3.76 | 103 ± 2 % CP55,940 | 3.93 | – | 1.55 | – | – | – | 31.6 | –
COC(=O)[C@H](Cc1ccccc1)NC(=O)c1nn(CCCCF)c2ccccc12 [Compound 37, methyl (1-(4-fluorobutyl)-1H-indazole-3-carbonyl)-L-phenylalaninate] | – | 0.5 | – | 101 ± 3 % CP55,940 | 4.65 | 106 ± 3 % CP55,940 | 5.62 | – | 0.457 | – | – | – | 33.9 | –
